The test system of series [1] is Bacillus subtilis ATCC 6633. Briefly: MIC, microdilution assay. The conditions noted are these: broth microdilution (CLSI), MHB, overnight 37 °C, OD 600 nm; mean of three independent measurements. The format is cell-based. How it is done: (§1) The microbicidal activity of BacSp222 was determined using the microdilution method in compliance with Clinical and Laboratory Standards Institute (CLSI, for bacteria) guidelines M7-A7[57] and in compliance with the European Committee on Antimicrobial Susceptibility Testing - Subcommittee on Antifungal Susceptibility Testing (EUCAST-AFST, for fungi)[58]. Briefly, the microorganisms were cultivated in dedicated liquid media to reach the early exponential phase or, in the case of Streptococcus spp., grown overnight on agar MHB supplemented with 2.5% (v/v) lysed horse blood (LHB). Subsequently, the microorganisms were diluted to 1 × 10^6 CFU/ml (estimated using an Eddy Jet 2 automatic spiral plater, IUL) in MHB; in MHB supplemented with 5% (v/v) LHB (for streptococci); or, in the case of Candida albicans, in RPMI-1640 medium (Thermo) without L-Glu and phenol red, supplemented with 0.6 g/l L-Glu, 34.53 g/l 3-(N-morpholino)propanesulphonic acid and 18 g/l glucose, pH 7.0. Fifty microliters of microorganism suspension were mixed with an equal volume of appropriate medium containing serial 2- or 1.5-fold dilutions of BacSp222. After the cultures were incubated overnight at 37 °C, the optical density (OD) at 600 nm was measured. The minimal inhibitory concentration (MIC), calculated as a mean value from three independent measurements, was defined as the minimum peptide concentration for which an increase in OD was not observed compared to uninoculated broth.
In general terms: In broth dilution the organism is exposed to a series of concentrations in liquid medium.

The subject of series [2] is Escherichia coli K12. The series is described as follows: MIC, microdilution assay. Format: cell-based. The settings on record: broth microdilution (CLSI), MHB, overnight 37 °C, OD 600 nm; highest concentration tested 100 μM. How it is done: as §1
Series [3] concerns Klebsiella pneumoniae ATCC 13886. The series is described as follows: MIC, microdilution assay. The format is cell-based. The settings on record: broth microdilution (CLSI), MHB, overnight 37 °C, OD 600 nm; highest concentration tested 100 μM. The method, then:
as §1

Series [4] has as its system Lactococcus lactis subsp. lactis ŁOCK 0871 strain 239. The series is described as follows: MIC, microdilution assay. Format: cell-based. The conditions noted are these: broth microdilution (CLSI), MHB, overnight 37 °C, OD 600 nm; mean of three independent measurements. The method, then:
as §1

Series [5] deals with Micrococcus luteus ATCC 4698. The series is described as follows: MIC, microdilution assay. The format is cell-based. The settings on record: broth microdilution (CLSI), MHB, overnight 37 °C, OD 600 nm; mean of three independent measurements. The method, then: as §1
Series [6] deals with Serratia marcescens ATCC 274. Briefly: MIC, microdilution assay. The format is cell-based. The settings on record: broth microdilution (CLSI), MHB, overnight 37 °C, OD 600 nm; highest concentration tested 100 μM. How it is done:
as §1

The subject of series [7] is Staphylococcus aureus ATCC 25923. Briefly: MIC, microdilution assay. Format: cell-based. The settings on record: broth microdilution (CLSI), MHB, overnight 37 °C, OD 600 nm; mean of three independent measurements. How it is done: as §1
Series [8] deals with Staphylococcus aureus DSM 26258 (CH91). The series is described as follows: MIC, microdilution assay. The format is cell-based. The settings on record: broth microdilution (CLSI), MHB, overnight 37 °C, OD 600 nm; mean of three independent measurements. The method, then: as §1
Series [9] deals with Staphylococcus aureus KB/8658. The series is described as follows: MIC, microdilution assay. The conditions noted are these: broth microdilution (CLSI), MHB, overnight 37 °C, OD 600 nm; mean of three independent measurements. The format is cell-based. How it is done:
as §1

Series [10] deals with Staphylococcus aureus MRSA USA300 strain FPR3757. Briefly: MIC, microdilution assay. The format is cell-based. The settings on record: broth microdilution (CLSI), MHB, overnight 37 °C, OD 600 nm; mean of three independent measurements. The method, then: as §1
Series [11] concerns Staphylococcus epidermidis ATCC 35547. The series is described as follows: MIC, microdilution assay. The format is cell-based. The conditions noted are these: broth microdilution (CLSI), MHB, overnight 37 °C, OD 600 nm; mean of three independent measurements. The method, then: as §1
The test system of series [12] is Staphylococcus intermedius ATCC 29663. Briefly: MIC, microdilution assay. The format is cell-based. The settings on record: broth microdilution (CLSI), MHB, overnight 37 °C, OD 600 nm; mean of three independent measurements. How it is done: as §1
In series [13] the test system is Staphylococcus intermedius R-2725. The series is described as follows: MIC, microdilution assay. The conditions noted are these: broth microdilution (CLSI), MHB, overnight 37 °C, OD 600 nm; mean of three independent measurements. Format: cell-based. The method, then:
as §1

Series [14] relates to Staphylococcus pseudintermedius 222. The series is described as follows: MIC, microdilution assay. The conditions noted are these: bacteriocin-producing strain; broth microdilution (CLSI), MHB, overnight 37 °C, OD 600 nm; mean of three independent measurements. The format is cell-based. The method, then:
as §1

Series [15] has as its system Staphylococcus pseudintermedius LMG 22219. The series is described as follows: MIC, microdilution assay. Format: cell-based. The settings on record: nonproducer strain; broth microdilution (CLSI), MHB, overnight 37 °C, OD 600 nm; mean of three independent measurements. The method, then: as §1
Series [16] deals with Staphylococcus saprophyticus ATCC 15305. Briefly: MIC, microdilution assay. The conditions noted are these: broth microdilution (CLSI), MHB, overnight 37 °C, OD 600 nm; mean of three independent measurements. Format: cell-based. The method, then: as §1
Series [17] has as its system Streptococcus pyogenes PCM 465. Briefly: MIC, microdilution assay. The settings on record: broth microdilution (CLSI), MHB with 5% lysed horse blood, overnight 37 °C, OD 600 nm; mean of three independent measurements. Format: cell-based. How it is done: as §1
The test system of series [18] is Streptococcus sanguinis PCM 2335. Briefly: MIC, microdilution assay. The format is cell-based. The conditions noted are these: broth microdilution (CLSI), MHB with 5% lysed horse blood, overnight 37 °C, OD 600 nm; mean of three independent measurements. How it is done: as §1
Series [19] has as its system S. aureus. Briefly: Bactericidal test, plating on TSA after incubation. Format: cell-based, Staphylococcus aureus. The conditions noted are these: 1 × 10^4 CFU incubated with 1 μM bacteriocin for 30 minutes (data not shown).
The nature of series [20]: Conformational stability by CD, ellipticity at 220 nm against temperature. Format: physicochemical. The conditions noted are these: 125 μg/ml in PBS, 20–90 °C at 1 °C/min. The method, then:
The circular dichroism (CD) spectra of BacSp222 (125 μg/ml in PBS) were recorded using a J-715 spectropolarimeter (Jasco). The spectra were recorded at room temperature in the range 190–240 nm and were averaged over three independent passes. The amount of secondary structures was estimated by fitting the measured spectra to the reference spectra of natural native proteins (Prot, Jasco) or synthetic polypeptides (Yang, Jasco). To evaluate the conformational stability of the BacSp222 molecule at different temperatures, the ellipticity of the polarized light was recorded at 220 nm over the temperature range 20–90 °C at 1 °C/min increments.

Series [21] relates to P388D1 cells. Briefly: NO synthesis (nitrite, Griess reagent). The format is cell-based, murine. The settings on record: 24 h. The method, then: The murine monocyte/macrophage cell line P388/D1 and murine macrophage-like cell line RAW264.7 were grown in a 96-well plate in DMEM supplemented with 5% (v/v) FBS. Prior to the experiment, the medium was replaced with fresh DMEM enriched with 2% (v/v) of FBS (negative control) or supplemented with 1) 100 ng/ml lipopolysaccharide (LPS, Sigma), 2) 10 ng/ml IFN [drawing 9] (R&D Systems), 3) 0.01–1000 nM BacSp222, or 4) BacSp222 combined with LPS or IFN [drawing 10] . The cells were then cultured for another 24 h to induce iNOS expression and nitric oxide synthesis. The nitrite levels were measured in culture medium by a nitrate assay performed on a microplate. One hundred microliters of cultured media was incubated with 100 μl of Griess reagent (1% (w/v) sulphanilic acid/0.1% (w/v) N-(1-naphtyl) ethylenediaminedihydrochloride (Sigma) in 2.5% (v/v) H3PO4) at room temperature for 10 min. Then, the absorbance was measured at 545 nm using a microplate reader (PowerWave X, BioTek Instruments). Before use, the solution of BacSp222 was tested for LPS contamination using an E-TOXATE assay kit (Sigma). The measurements ascertained that the level of LPS in 1 μM bacteriocin solution was equal to or less than 3 pg/ml.
In general terms: Griess reagent forms a coloured azo dye with nitrite.

No end group written: not given here. *: point of attachment. For = O=C* Some results are limits rather than exact numbers.

Consider “For-MAGLLRFLLSKGRALYNWAKSHVGKVWEWLKSGATYEQIKEWIENALGWR [BacSp222]”, for which the “MIC ± SD” value in series [1] is 0.16 ± 0.00 µM; in series [2] it was more than 100 µM; in series [3], more than 100 µM; in [4], 0.89 ± 0.00 µM; in series [5], 0.11 µM; in [6] it was more than 100 µM. The “MIC ± SD” value in series [7] is 1.00 ± 0.36 µM; in series [8], 0.92 ± 0.23 µM; in [9], 1.30 ± 0.00 µM; in series [10] it was 0.89 ± 0.00 µM; in series [11], 4.40 ± 0.00 µM; in [12], 2.00 ± 0.00 µM. Besides, the “MIC ± SD” value in series [13] turned out to be 1.20 ± 0.24 µM; in series [14] it was 2.1 µM; in series [15], 0.16 µM; in series [16], 0.93 ± 0.36 µM; in series [17], 7.8 µM; in series [18], 3.50 ± 0.85 µM. Also, in series [19], the “colonies after plating on TSA” value was “complete absence of the colonies”. Besides, the “ellipticity at 220 nm at elevated temperatures” value in series [20] was “lack of changes in ellipticity at 220 nm, up to 90 °C”. For the same substance, in [21] (0.01–1000 nM BacSp222 with LPS 100 ng/ml), the “effect on LPS-induced NO production” value is “did not affect”. Further, the “NO production after exposure to BacSp222 alone” value in series [21] (at 100 and 1000 nM, DMEM 2% FBS, nitrite at 545 nm) was “able to produce NO”. In addition, the “NO release with BacSp222 together with IFNγ” value in series [21] (nanomolar concentrations of BacSp222 with IFNγ 10 ng/ml) is “released NO in a dose-dependent manner”.

(Values after PMC4585962, “A peptide factor secreted by Staphylococcus pseudintermedius exhibits properties of both bacteriocins and virulence factors” (Scientific Reports, 2015).)
